# Experimental data as given in patent US10189854B2, “Substituted pyrimidine compounds” (Grünenthal GmbH, priority 2014, dated 2019).
# Target: human PDE4B1 (Homo sapiens (Human), UniProt Q07343)
# Assay: TR-FRET assay using the LANCE Ultra cAMP kit to determine the activity of hPDE4B1
# Format: biochemical
# Conditions: IC50 inhibition of PDE4B, mean
# Text: TR-FRET Assay Using the LANCE® Ultra cAMP Kit to Determine the Activity of hPDE4B1
# The effects of the compounds on the activity of the human PDE4B1 was quantified by measuring the production of 5′AMP from cAMP using a human recombinant enzyme expressed in Sf9 cells and the LANCE® Ultra cAMP kit, a TR-FRET detection method from PerkinElmer. The human PDE4B1 enzyme was purchased from SignalChem Lifesciences (Catalog# P92-31BG, Lot# H296-2).
# The test compound, reference compound or water (control) was mixed with the enzyme (0.96 U) in a reaction buffer containing 50 mM Tris-HCl, 50 mM MgCl2 and 5 mM DTT (pH 8.5). Thereafter, the reaction was initiated by addition of 500 nM cAMP (substrate) and the mixture was incubated for 30 minutes at room temperature. For control basal measurements, the enzyme was omitted from the reaction mixture. After 30 minutes, the reaction was stopped and diluted by a factor of 100 with the reaction buffer supplemented with 500 μM IBMX. The fluorescence donor (europium chelate-labeled cAMP) and the fluorescence acceptor (anti-cAMP antibody labeled with the ULight™ dye) were then added together with 500 μM IBMX to a 10 μl aliquot. After 60 minutes, the fluorescence transfer corresponding to the amount of residual cAMP was measured at λex=337 nm, λem=620 nm and λem=665 nm using a microplate reader (PHERAstar, BMG). The enzyme activity was determined by dividing the signal measured at 665 nm by that measured at 620 nm (ratio) multiplied by 10000. The results were expressed as percent inhibition of the control enzyme activity. IC50 values (IC50=concentration causing a half-maximal inhibition of control specific activity) were derived from dose response measurements with ten different concentrations (n=3; N=1-3).
# Several compounds according to the invention are tested with above mentioned assay.
# Chain of human PDE4B1 (Q07343 whole entry): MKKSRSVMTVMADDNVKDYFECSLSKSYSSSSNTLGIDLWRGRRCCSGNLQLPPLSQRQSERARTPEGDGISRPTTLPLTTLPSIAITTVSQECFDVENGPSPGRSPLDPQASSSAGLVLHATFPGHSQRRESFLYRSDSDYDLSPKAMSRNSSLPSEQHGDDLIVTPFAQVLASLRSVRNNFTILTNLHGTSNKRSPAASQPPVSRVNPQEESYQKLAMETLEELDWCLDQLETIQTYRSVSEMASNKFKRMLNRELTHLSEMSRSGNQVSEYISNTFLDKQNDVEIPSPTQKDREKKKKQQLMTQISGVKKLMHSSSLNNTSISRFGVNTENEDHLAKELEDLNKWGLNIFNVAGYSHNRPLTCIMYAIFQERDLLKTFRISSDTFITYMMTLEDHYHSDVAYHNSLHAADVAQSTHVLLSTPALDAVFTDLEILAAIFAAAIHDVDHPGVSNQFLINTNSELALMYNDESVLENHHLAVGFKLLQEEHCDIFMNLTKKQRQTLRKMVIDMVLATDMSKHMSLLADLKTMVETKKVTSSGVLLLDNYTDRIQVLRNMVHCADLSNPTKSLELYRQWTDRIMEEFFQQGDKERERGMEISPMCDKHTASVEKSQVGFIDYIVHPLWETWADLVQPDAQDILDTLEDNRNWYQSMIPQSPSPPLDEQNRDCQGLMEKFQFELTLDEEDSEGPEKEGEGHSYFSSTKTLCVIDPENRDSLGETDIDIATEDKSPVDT
row,IC50,Compound
1,0.1 to 1 µM,"NC(=O)CN1CCN(C(=O)c2ccc3c(c2)N(c2ncc(-c4ccccc4F)cn2)CC32CC2)CC1 [Compound 236, 2-[4-[1-[5-(2-Fluorophenyl)-pyrimidin-2-yl]-spiro[1,2-dihydro-indole-3,1′-cyclopropane]-6-carbonyl]-piperazin-1-yl]-acetamide]"
2,0.1 to 1 µM,"O=C(O)CN1CCN(C(=O)c2ccc3c(c2)N(c2ncc(-c4ccccc4F)cn2)CC32CC2)CC1 [Compound 237, 2-[4-[1-[5-(2-Fluorophenyl)-pyrimidin-2-yl]-spiro[1,2-dihydro-indole-3,1′-cyclopropane]-6-carbonyl]-pieprazin-1-yl]-acetic acid]"
3,< 0.1 µM,"O=C(O)C1CCCN(C(=O)c2ccc3c(c2)N(c2ncc(-c4ccccc4F)cn2)CC32CC2)C1 (centres unmarked) [Compound 238, 1-[1-[5-(2-Fluorophenyl)-pyrimidin-2-yl]-spiro[1,2-dihydro-indole-3,1′-cyclopropane]-6-carbonyl]-piperidine-3-carboxylic acid]"
4,< 0.1 µM,"C[C@@H](O)CN1CCN(C(=O)c2ccc3c(c2)N(c2ncc(-c4ccccc4F)cn2)CC32CC2)CC1 [Compound 239, [1-[5-(2-Fluorophenyl)-pyrimidin-2-yl]-spiro[1,2-dihydro-indole-3,1′-cyclopropane]-6-yl]-[4-[(2R)-2-hydroxy-propyl]-piperazin-1-yl]-methanone]"
5,0.1 to 1 µM,"C[C@H](O)CN1CCN(C(=O)c2ccc3c(c2)N(c2ncc(-c4ccccc4F)cn2)CC32CC2)CC1 [Compound 240, [1-[5-(2-Fluorophenyl)-pyrimidin-2-yl]-spiro[1,2-dihydro-indole-3,1′-cyclopropane]-6-yl]-[4-[(2S)-2-hydroxy-propyl]-piperazin-1-yl]-methanone]"
6,< 0.1 µM,"CCc1ccnc(-c2cnc(N3CC4(CC4)c4ccc(C(=O)N(C)CCO)cc43)nc2)c1 [Compound 241, 1-[5-(4-Ethyl-pyridin-2-yl)-pyrimidin-2-yl]-N-(2-hydroxy-ethyl)-N-methyl-spiro[1,2-dihydro-indole-3,1′-cyclopropane]-6-carboxylic acid amide]"
7,< 0.1 µM,"CC(C)c1ccnc(-c2cnc(N3CC4(CC4)c4ccc(C(=O)N(C)CCO)cc43)nc2)c1 [Compound 242, N-(2-Hydroxy-ethyl)-1-[5-(4-isopropyl-pyridin-2-yl)-pyrimidin-2-yl]-N-methyl-spiro[1,2-dihydro-indole-3,1′-cyclopropane]-6-carboxylic acid amide]"
8,< 0.1 µM,"CCc1ccnc(-c2cnc(N3CC4(CC4)c4ccc(C(=O)N5CCNC(=O)C5)cc43)nc2)c1 [Compound 243, 4-[1-[5-(4-Ethyl-pyridin-2-yl)-pyrimidin-2-yl]-spiro[1,2-dihydro-indole-3,1′-cyclopropane]-6-carbonyl]-piperazin-2-one]"
9,< 0.1 µM,"COc1ccnc(-c2cnc(N3CC4(CC4)c4ccc(C(=O)N5CCNC(=O)C5)cc43)nc2)c1 [Compound 244, 4-[1-[5-(4-Methoxy-pyridin-2-yl)-pyrimidin-2-yl]-spiro[1,2-dihydro-indole-3,1′-cyclopropane]-6-carbonyl]-piperazin-2-one]"
10,< 0.1 µM,"CN(CC(=O)O)C(=O)c1ccc2c(c1)N(c1ncc(-c3ccccc3F)cn1)CC21CC1 [Compound 245, 2-[[1-[5-(2-Fluorophenyl)-pyrimidin-2-yl]-spiro[1,2-dihydro-indole-3,1′-cyclopropane]-6-carbonyl]-methyl-amino]-acetic acid]"
11,0.1 to 1 µM,"COC(=O)CN(C)C(=O)c1ccc2c(c1)N(c1ncc(-c3ccccc3F)cn1)CC21CC1 [Compound 246, 2-[[1-[5-(2-Fluorophenyl)-pyrimidin-2-yl]-spiro[1,2-dihydro-indole-3,1′-cyclopropane]-6-carbonyl]-methyl-amino]acetic acid methyl ester]"
12,0.1 to 1 µM,"O=C(c1ccc2c(c1)N(c1ncc(-c3ccccc3)cn1)CC21CC1)N1C[C@H]2C[C@@H]1CN2 [Compound 248, [(1R,4R)-2,5-Diazabicyclo[2.2.1]heptan-2-yl]-[1-(5-phenyl-pyrimidin-2-yl)-spiro[1,2-dihydro-indole-3,1′-cyclopropane]-6-yl]-methanone]"
13,< 0.1 µM,"O=C(c1ccc2c(c1)N(c1ncc(-c3ccccc3)cn1)CC21CC1)N1C[C@@H]2C[C@H]1CN2 [Compound 249, [(1S,4S)-2,5-Diazabicyclo[2.2.1]heptan-2-yl]-[1-(5-phenyl-pyrimidin-2-yl)-spiro[1,2-dihydro-indole-3,1′-cyclopropane]-6-yl]-methanone]"
14,< 0.1 µM,"O=C(c1ccc2c(c1)N(c1ncc(-c3cccc(O)c3)cn1)CC21CC1)N1CC2CC1CN2 (centres unmarked) [Compound 250, (2,5-Diazabicyclo[2.2.1]heptan-2-yl)-[1-[5-(3-hydroxyphenyl)-pyrimidin-2-yl]-spiro[1,2-dihydro-indole-3,1′-cyclopropane]-6-yl]-methanone]"
15,< 0.1 µM,"CN(CCO)C(=O)c1ccc2c(c1)N(c1ncc(-c3cc(N)ccn3)cn1)CC21CC1 [Compound 251, 1-[5-(4-Amino-pyridin-2-yl)-pyrimidin-2-yl]-N-(2-hydroxy-ethyl)-N-methyl-spiro[1,2-dihydro-indole-3,1′-cyclopropane]-6-carboxylic acid amide]"
16,< 0.1 µM,"CC(=O)Nc1ccnc(-c2cnc(N3CC4(CC4)c4ccc(C(=O)N(C)CCO)cc43)nc2)c1 [Compound 252, 1-[5-(4-Acetylamino-pyridin-2-yl)-pyrimidin-2-yl]-N-(2-hydroxy-ethyl)-N-methyl-spiro[1,2-dihydro-indole-3,1′-cyclopropane]-6-carboxylic acid amide]"
17,< 0.1 µM,"COc1ccc(F)c(-c2cnc(N3CC4(CC4)c4ccc(C(=O)N(C)CCO)cc43)nc2)c1 [Compound 253, 1-[5-(2-Fluoro-5-methoxy-phenyl)-pyrimidin-2-yl]-N-(2-hydroxy-ethyl)-N-methyl-spiro[1,2-dihydro-indole-3,1′-cyclopropane]-6-carboxylic acid amide]"
18,< 0.1 µM,"CN(CCO)C(=O)c1ccc2c(c1)N(c1ncc(-c3cc(C4CC4)ccn3)cn1)CC21CC1 [Compound 254, 1-[5-(4-Cyclopropyl-pyridin-2-yl)-pyrimidin-2-yl]-N-(2-hydroxy-ethyl)-N-methyl-spiro[1,2-dihydro-indole-3,1′-cyclopropane]-6-carboxylic acid amide]"
19,< 0.1 µM,CN(C)c1ccnc(-c2cnc(N3CC4(CC4)c4ccc(C(=O)N5CCNC(=O)C5)cc43)nc2)c1 [Compound 255]
20,< 0.1 µM,"CN(CC(N)=O)C(=O)c1ccc2c(c1)N(c1ncc(-c3ccccc3F)cn1)CC21CC1 [Compound 256, N-(Carbamoyl-methyl)-1-[5-(2-fluorophenyl)-pyrimidin-2-yl]-N-methyl-spiro[1,2-dihydro-indole-3,1′-cyclopropane]-6-carboxylic acid amide]"
21,< 0.1 µM,"CCOc1ccnc(-c2cnc(N3CC4(CC4)c4ccc(C(=O)N(C)CCO)cc43)nc2)c1 [Compound 257, 1-[5-(4-Ethoxy-pyridin-2-yl)-pyrimidin-2-yl]-N-(2-hydroxy-ethyl)-N-methyl-spiro[1,2-dihydro-indole-3,1′-cyclopropane]-6-carboxylic acid amide]"
22,< 0.1 µM,"Nc1ccnc(-c2cnc(N3CC4(CC4)c4ccc(C(=O)N5CCNC(=O)C5)cc43)nc2)c1 [Compound 258, 4-[1-[5-(4-Amino-pyridin-2-yl)-pyrimidin-2-yl]-spiro[1,2-dihydro-indole-3,1′-cyclopropane]-6-carbonyl]-piperazin-2-one]"
23,< 0.1 µM,"Cc1cc(N)cc(-c2cnc(N3CC4(CC4)c4ccc(C(=O)N5CCOCC5)cc43)nc2)n1 [Compound 259, [1-[5-(4-Amino-6-methyl-pyridin-2-yl)-pyrimidin-2-yl]-spiro[1,2-dihydro-indole-3,1′-cyclopropane]-6-yl]-morpholin-4-yl-methanone]"
24,< 0.1 µM,"Cc1cc(C)nc(-c2cnc(N3CC4(CC4)c4ccc(C(=O)N(C)CCO)cc43)nc2)c1 [Compound 260, 1-[5-(4,6-Dimethyl-pyridin-2-yl)-pyrimidin-2-yl]-N-(2-hydroxy-ethyl)-N-methyl-spiro[1,2-dihydro-indole-3,1′-cyclopropane]-6-carboxylic acid amide]"
25,< 0.1 µM,"Cc1cc(N)cc(-c2cnc(N3CC4(CC4)c4ccc(C(=O)N(C)CCO)cc43)nc2)n1 [Compound 261, 1-[5-(4-Amino-6-methyl-pyridin-2-yl)-pyrimidin-2-yl]-N-(2-hydroxy-ethyl)-N-methyl-spiro[1,2-dihydro-indole-3,1′-cyclopropane]-6-carboxylic acid amide]"
26,< 0.1 µM,"CN(CCO)C(=O)c1ccc2c(c1)N(c1ncc(-c3cccnn3)cn1)CC21CC1 [Compound 262, N-(2-Hydorxy-ethyl)-N-methyl-1-(5-pyridazin-3-yl-pyrimidin-2-yl)-spiro[1,2-dihydro-indole-3,1′-cyclopropane]-6-carboxylic acid amide]"
